The values below come from EP2439195B1, “NAPHTHALENE CARBOXAMIDE DERIVATIVES AS INHIBITORS OF PROTEIN KINASE AND HISTONE DEACETYLASE, PREPARATION METHODS AND USES THEREOF” (Shenzhen Chipscreen Biosciences, Ltd., priority 2009, dated 2010).

One assay has as its system total HDAC enzyme. Put plainly: In vitro total HDAC enzyme activity (HDAC Fluorimetric Assay/Drug Discovery Kit, HeLa cell nuclear extract). Format: biochemical. The protocol:
The in vitro total HDAC enzyme activity was determined by HDAC Fluorimetric Assay/Drug Discovery Kit (BIOMOL) according to manufacture's instruction. The principle of the experiment is as follows: under the action of histone deacetylase (in the experiment, HeLa cell nuclear extract, which was rich in a variety of subtypes of HDAC, was used), an acetyl group is removed from a special substrate Fluor de Lys, thus the free amino is exposed. Upon Developer is added, the substrate will produce fluorescence. For the fluorescence, excitation wavelength is 360nm, and emission wavelength is 460nm. More fully the substrate deacetylated, more higher the fluorescence induced. In the absence of inhibitors, the fluorescence value is taken as the control; when inhibitor is existed, fluorescence value induced will be reduced, while in the case no enzyme is existed (corresponding to the completely inhibition of enzyme activity) the fluorescence value is blank. Generally, after suppression the fluorescence values will be between the control and blank. When analysis is made, blank will be used as 0, and the control will be used as 1. Smaller value means higher inhibitory activity. 1. Add Assay buffer, diluted trichostatin A and test inhibitor to appropriate wells of the microtiter plate. Following table lists the amounts used for each regent of various assay types.
2. Add diluted HeLa nucleoprotein extract to all wells except those that are marked as "blank". 3. Allow diluted Fluor de Lys™ Substrate and the samples in the microtiter plate to equilibrate to 25°C. 4. Initiate HDAC reactions by adding diluted substrate (25 µl) to each well and mixing thoroughly. 5. Allow reactions to proceed for 30 minutes and then stop them by addition of Fluor de Lys™ Developer (50 µl). Incubate plate at room temperature (25°C) for 10-15 min. 6. Read fluorescence of samples on a microtiter-plate reading fluorimeter at a excitation wavelength of 369 nm and a emitted wavelength of 451 nm.

The next assay deals with HUVEC cells. In words: VEGF dependent cell proliferation (MTS). It counts as cell-based. Particulars: Homo sapiens, VEGF 165 (50ng/ml), 72 hours, serum-free medium, read-out: Gl50 nM (VEGF ligand-dependent cell proliferation). The protocol:
HUVEC cells were plated into 96-well plates at 6,000 per well and after 24 hours incubated with serum-free medium for 2 hours. Compounds to be tested and VEGF 165 (50ng/ml) were added and incubated for 72 hours in serum-free medium. The effects on cell proliferation were determined by MTS method (Promega) according to the instruction. Incubation was performed for 2 hours at 37°C in CO2 incubator, and absorbance at 490nm was determined using an ELISA plate reader.

A further assay has as its system Class I HDAC. In words: HDAC subtype selectivity reporter gene assay (P21 reporter, HeLa cells). Format: cell-based. Conditions: Homo sapiens, read-out: Class I HDAC (P21 reporter assay) Fold Induction at 10µM. The protocol: Different HDAC subtypes can bind with different transcriptional factors and involve in expression regulation of various genes. Suitable regulation elements for transcriptional factors are selected to construct reporter genes, which can be used to evaluate the selective inhibition of inhibors on HDAC subtypes. Briefly, HeLa cells were seeded in 96-well plates the day before transfection to give a confluence of 50-80% when transfection. Cells were transfected with one of reporter gene plasmid containing a p21-promoter sequence or response element upstream of a luciferase gene construct using FuGene6 transfection reagent according to the manufacturer's instruction (Roche). For normalizing the transfection efficiency, a GFP expression plasmid was cotransfected. After 24 hours compounds or the vehicle control (DMSO) were added. 24 hours later the cells were harvested and lysed, and the amount of the luciferase was evaluated using luciferase assay kits (Promega) according to the manufacturer's instructions.
(In general: Reporter assays use an easily measured gene product as a stand-in for the process of interest.)

For the next assay, the target named is T1, human PDGFRβ (Homo sapiens, UniProt P09619).
T1 construct: expressed in transfected cells
In words: PDGF dependent cell proliferation (MTS). Format: cell-based. The protocol:
NIH-3T3 mouse fibroblasts cell line engineered to stably express human PDGFRβ was constructed and used to evaluate PDGF dependent cell proliferation. PDGFRβ NIH-3T3 cells were plated into 96-well plates at 5,000 per well and incubated overnight with serum-free medium after 24 hours. Compounds to be tested and PDGF BB (50ng/ml) were added and incubated for 72 hours in serum-free medium. The effects on proliferation were determined by MTS method (Promega) according to the instruction. Incubation was performed for 2 hours at 37°C in CO2 incubator, and absorbance at 490nm was measured using an ELISA plate reader.

For a further assay, the system named is A549. In words: Tumor cell proliferation (MTS), A549. It counts as cell-based. Particulars: Homo sapiens; A549, 72 hours; read-out: Gl50 µM in A549. The protocol: (§1) Tumor cells were trypsinized and plated into 96-well plates at 3,000 per well and incubated in complete medium with 10% FBS for 24 hours. Compounds to be tested and vehicle control were added, and the final concentration of compound is in the range of 100 nmol/L to 100 µmol/L. The compounds were incubated for 72 hours in complete medium. The MTS reagent (Promega) was added according to the instruction, incubated for 2 hours at 37°C in CO2 incubator. Then absorbance at 490nm is read using an ELISA plate reader.

For the next assay, the system named is A-498. Put plainly: Tumor cell proliferation (MTS), A-498. It counts as cell-based. Particulars: Homo sapiens, A498; A-498, 72 hours; read-out: Gl50 µM in A-498. The protocol: as §1
Another assay has as its system MCF-7. Put plainly: Tumor cell proliferation (MTS), MCF-7. Format: cell-based. Conditions: Homo sapiens, MCF7; MCF-7, 72 hours; read-out: Gl50 µM in MCF-7. The protocol: as §1
Another assay deals with HCT-8. Put plainly: Tumor cell proliferation (MTS), HCT-8. Particulars: Homo sapiens; HCT-8, 72 hours; read-out: Gl50 µM in HCT-8. It counts as cell-based. The protocol: as §1
Another assay relates to Bel-7402. In words: Tumor cell proliferation (MTS), Bel-7402. It counts as cell-based. Conditions: Homo sapiens; Bel-7402, 72 hours; read-out: Gl50 µM in Bel-7402. The protocol: as §1
Setting [1] is: PDGFRβ NIH-3T3 cells, PDGF BB (50ng/ml), 72 hours, serum-free medium; read-out: Gl50 nM (PDGF ligand-dependent cell proliferation).

Like-named read-outs stand apart in the source and are kept apart here.

T1 sequence (P09619 33-1106): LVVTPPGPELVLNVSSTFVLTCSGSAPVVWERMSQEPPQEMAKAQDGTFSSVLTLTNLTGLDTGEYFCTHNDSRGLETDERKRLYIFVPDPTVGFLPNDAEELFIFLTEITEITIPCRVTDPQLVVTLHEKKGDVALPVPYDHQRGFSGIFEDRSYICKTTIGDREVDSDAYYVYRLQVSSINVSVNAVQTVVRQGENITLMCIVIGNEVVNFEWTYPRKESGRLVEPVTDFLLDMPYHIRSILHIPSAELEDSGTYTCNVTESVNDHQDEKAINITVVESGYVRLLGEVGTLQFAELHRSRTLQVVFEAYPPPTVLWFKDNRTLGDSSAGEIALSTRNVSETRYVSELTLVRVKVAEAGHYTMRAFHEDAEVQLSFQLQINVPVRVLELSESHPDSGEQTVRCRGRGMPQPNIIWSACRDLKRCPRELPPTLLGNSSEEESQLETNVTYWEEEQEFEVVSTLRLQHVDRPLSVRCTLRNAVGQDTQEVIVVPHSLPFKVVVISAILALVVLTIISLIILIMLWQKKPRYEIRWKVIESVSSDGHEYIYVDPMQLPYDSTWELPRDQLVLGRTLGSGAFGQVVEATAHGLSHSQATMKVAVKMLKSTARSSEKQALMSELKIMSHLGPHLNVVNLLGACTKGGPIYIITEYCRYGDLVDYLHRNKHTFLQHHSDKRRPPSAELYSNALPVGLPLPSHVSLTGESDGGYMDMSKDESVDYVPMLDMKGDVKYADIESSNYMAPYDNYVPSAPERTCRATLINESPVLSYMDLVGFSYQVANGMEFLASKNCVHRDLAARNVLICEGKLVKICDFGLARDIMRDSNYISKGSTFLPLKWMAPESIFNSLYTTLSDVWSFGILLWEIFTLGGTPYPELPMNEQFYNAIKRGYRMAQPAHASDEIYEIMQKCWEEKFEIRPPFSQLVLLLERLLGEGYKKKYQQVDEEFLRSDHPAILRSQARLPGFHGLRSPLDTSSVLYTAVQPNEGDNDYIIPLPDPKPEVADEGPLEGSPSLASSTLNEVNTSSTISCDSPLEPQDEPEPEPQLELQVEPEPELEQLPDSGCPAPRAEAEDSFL

For `Nc1ccccc1NC(=O)c1ccc(CNC(=O)c2cccc3cc(Oc4ccnc5cc(Cl)ccc45)ccc23)cc1` [Compound 43, N-(4-((2-aminophenyl)carbamoyl)benzyl)-6-(7-chloroquinolin-4-yloxy)-1-naphthamide], the “% inhibition of total HDAC enzyme activity at 30µM” value (“% inhibition” below) with total HDAC enzyme amounted to 38.7%. Further, the IC50 in the assay on HUVEC cells worked out at 288 nM. Also, the fold induction at 10 µM in the assay on Class I HDAC (10µM, HeLa cells, 24 hours) is 6.1.

In the case of `COc1cc2ncnc(Oc3ccc4c(C(=O)NCc5ccc(C(=O)Nc6ccccc6N)cc5)cccc4c3)c2cc1OC` [Compound 23, N-(4-((2-aminophenyl)carbamoyl)benzyl)-6-(6,7-dimethoxyquinazolin-4-yloxy)-1-naphthamide], the IC50 at human PDGFRβ (setting [1]) was determined as 148 nM; in the assay with A549, 30000 nM; in the assay on A-498, 14700 nM; in the assay with HUVEC cells, 18 nM; with MCF-7, 4300 nM; in the assay on HCT-8, 5700 nM. Moreover, the IC50 in the assay on Bel-7402 stood at 30000 nM. Moreover, in the assay with total HDAC enzyme, the “% inhibition” value is listed as 49.4%. The fold induction at 10 µM with Class I HDAC (10µM, HeLa cells, 24 hours) stood at 11.3.

`COc1cc2ncnc(Oc3ccc4c(C(=O)NCc5ccc(C(=O)Nc6ccccc6N)cn5)cccc4c3)c2cc1OC` [Compound 25]: the IC50 on human PDGFRβ (read-out: Gl50 nM (PDGF ligand-dependent cell proliferation); PDGFRβ NIH-3T3 cells, PDGF BB (50ng/ml), 72 hours, serum-free medium) came to 69 nM; in the assay on A549 it was 30000 nM; in the assay with A-498 it was 14700 nM; with HUVEC cells, 13 nM; in the assay with MCF-7, 6100 nM; in the assay on HCT-8 it was 4900 nM. Also, the IC50 in the assay with Bel-7402 worked out at 30000 nM. Moreover, in the assay on total HDAC enzyme, the “% inhibition” value came to 47.9%. For the same compound, the fold induction at 10 µM in the assay with Class I HDAC (HeLa, 24 h) was found to be 12.1.

For the compound `Nc1ccccc1NC(=O)c1cccc2cc(Oc3ccnc4c(C(F)(F)F)cccc34)ccc12` [Compound 42, N-(2-aminophenyl)-6-(8-trifluoromethylquinolin-4-yloxy)-1-naphthamide], the IC50 came to 48 nM at human PDGFRβ (setting [1]) and 1000 nM with HUVEC cells. Besides, the “% inhibition” value in the assay on total HDAC enzyme is listed as 6.2%. Further, the fold induction at 10 µM in the assay on Class I HDAC (10µM, HeLa cells, 24 hours) worked out at 1.3.

As for `Nc1ccccc1NC(=O)c1cccc2cc(Oc3ccnc4cc(Cl)ccc34)ccc12` [Compound 41, N-(2-aminophenyl)-6-(7-chloroquinolin-4-yloxy)-1-naphthamide], the figures for the IC50 on human PDGFRβ (setting [1]) and in the assay with HUVEC cells were 479 nM and 105 nM, respectively. In the assay with total HDAC enzyme, the “% inhibition” value worked out at 19.3%. Further, in the assay with Class I HDAC (10µM, HeLa cells, 24 hours), the fold induction at 10 µM was 1.1.

For the compound `COc1cc2ncnc(Oc3ccc4c(C(=O)Nc5ccc(Cl)cc5N)cccc4c3)c2cc1OC` [Compound 20, N-(2-amino-4-chlorophenyl)-6-(6,7-dimethoxyquinazolin-4-yloxy)-1-naphthamide], the IC50 was found to be 23 nM on human PDGFRβ (setting [1]) and 6 nM with HUVEC cells. In the assay on total HDAC enzyme, the “% inhibition” value came out at 21.9%. The fold induction at 10 µM in the assay on Class I HDAC (10µM, HeLa cells, 24 hours) turned out to be 1.5.

In the case of `COc1cc2ncnc(Oc3ccc4c(C(=O)Nc5ccc(C)cc5N)cccc4c3)c2cc1OC` [Compound 18, N-(2-amino-4-methylphenyl)-6-(6,7-dimethoxyquinazolin-4-yloxy)-1-naphthamide], the values for the IC50 on human PDGFRβ (setting [1]) and in the assay with HUVEC cells were 15 nM and 7 nM, respectively. Further, the “% inhibition” value in the assay on total HDAC enzyme is 17.1%. Besides, in the assay with Class I HDAC (10µM, HeLa cells, 24 hours), the fold induction at 10 µM is 1.1.

As to `COc1ccc(NC(=O)c2cccc3cc(Oc4ncnc5cc(OC)c(OC)cc45)ccc23)c(N)c1` [Compound 19, N-(2-amino-4-methoxyphenyl)-6-(6,7-dimethoxyquinazolin-4-yloxy)-1-naphthamide], the IC50 on human PDGFRβ (setting [1]) turned out to be 11 nM; in the assay on HUVEC cells it was 23 nM. For the same compound, the “% inhibition” value with total HDAC enzyme turned out to be 21.9%. Besides, the fold induction at 10 µM in the assay on Class I HDAC (10µM, HeLa cells, 24 hours) was determined as 1.4.

As to `Nc1ccccc1NC(=O)c1ccc(CNC(=O)c2cccc3cc(Oc4ccnc5c(C(F)(F)F)cccc45)ccc23)cc1` [Compound 44], the “% inhibition” value with total HDAC enzyme was found to be 35.1%. In addition, in the assay on HUVEC cells, the IC50 worked out at 1000 nM. In addition, the fold induction at 10 µM with Class I HDAC (10µM, HeLa cells, 24 hours) was determined as 3.2.

With `Nc1cc(F)ccc1NC(=O)c1ccc(CNC(=O)/C=C/c2cccnc2)cc1` [CS055, Chidamide, reference compound], the IC50 in the assay on A549 worked out at 11200 nM; in the assay on A-498, 12100 nM; in the assay with MCF-7, 3860 nM; with HCT-8 it was 7710 nM; with Bel-7402, 18900 nM. The fold induction at 10 µM in the assay on Class I HDAC (10µM, HeLa cells, 24 hours) amounted to 33.

Consider `Cc1cccc2c(Oc3ccc4c(C(=O)Nc5ccccc5N)cccc4c3)ccnc12` [Compound 40, N-(2-aminophenyl)-6-(8-methylquinolin-4-yloxy)-1-naphthamide], for which the “% inhibition” value in the assay on total HDAC enzyme is listed as 22.2%. In addition, the IC50 with HUVEC cells was determined as 1000 nM. The fold induction at 10 µM with Class I HDAC (10µM, HeLa cells, 24 hours) came out at 1.3.

Turning to `Nc1ccccc1NC(=O)c1cccc2cc(Oc3ccnc4ccccc34)ccc12` [Compound 39, N-(2-aminophenyl)-6-(quinolin-4-yloxy)-1-naphthamide], the IC50 on human PDGFRβ (setting [1]) came to 32 nM; in the assay on HUVEC cells it was 107 nM. The “% inhibition” value in the assay on total HDAC enzyme was determined as 15.9%. Further, in the assay with Class I HDAC (10µM, HeLa cells, 24 hours), the fold induction at 10 µM was determined as 1.2.

Turning to `COc1cc2ncnc(Oc3ccc4c(C(=O)Nc5ccc(C(F)(F)F)cc5N)cccc4c3)c2cc1OC` [Compound 22, N-(2-amino-4-trifluoromethylphenyl)-6-(6,7-dimethoxyquinazolin-4-yloxy)-1-naphthamide], the figures for the IC50 on human PDGFRβ (setting [1]) and in the assay with HUVEC cells were 372 nM and 3 nM, respectively. The “% inhibition” value in the assay on total HDAC enzyme is recorded as 17%. Moreover, in the assay with Class I HDAC (10µM, HeLa cells, 24 hours), the fold induction at 10 µM stood at 1.1.

`COc1cc2ncnc(Oc3ccc4c(C(=O)Nc5ccc(Br)cc5N)cccc4c3)c2cc1OC` [Compound 21, N-(2-amino-4-bromophenyl)-6-(6,7-dimethoxyquinazolin-4-yloxy)-1-naphthamide]: the IC50 on human PDGFRβ (setting [1]) was determined as 19 nM; with HUVEC cells, 5 nM. In addition, the “% inhibition” value in the assay with total HDAC enzyme is recorded as 18.6%. In the assay on Class I HDAC (10µM, HeLa cells, 24 hours), the fold induction at 10 µM amounted to 1.1.
